In patent US9949991B2, “Methods of treating aquaporin-mediated conditions” (Aeromics, Inc., priority 2013, dated 2018):
Values after ≈ are worked out from the molar mass of the structure shown. Read-outs that look alike come from different tables or passages of the source.

Key:
[1] = Bioconversion in mouse plasma in vitro; type: in vitro ADME
[2] = test system: mouse water toxicity model (cerebral edema); test: Mouse water toxicity model, brain volume by MRI
Protocol: The first time point at 5.67 min coincides with the scan slice at the middle of the brain during the first post-injection scan. Other time points are placed in a similar manner. The data is fitted to a single exponential equation: V/V0=Vi+dVmax(1−e^(−kt)); • where V/V0=relative brain volume, Vi=initial relative brain volume, dVmax=maximum change in relative brain volume, k=first order rate constant (min^−1), and t=time in minutes.
Mouse Water Toxicity Model—Brain Volume by Magnetic Resonance Imaging (MRI): MRI is used to measure changes in brain volume in response to water shock, using the water toxicity model. As described for the survival and brain water content studies above, mice are injected, IP, with a water bolus alone or water bolus and test compound at 0.76 mg/kg, and changes in brain volume as detected by MRI are monitored. […] High resolution T2-weighted sagittal scans (resolution=0.1 mm×0.1 mm×0.7 mm) of the mouse head are obtained prior to water injection, 5.67 min post water injection, and then every 5.2 minutes until the animal expires from the water loading. […] The cross sectional area of the brain in each imaging slice is measured by manual region-of-interest selection using ImageJ. Brain volumes are then calculated for each scan by summing the individual cross sectional brain areas and multiplying by the slice thickness (0.7 mm).

[3] = Solubility in water
[4] = target: T1, AQP5 (Homo sapiens, UniProt P55064); test: Aquaporin-Mediated Cell Volume Change Assay, CHO cells expressing AQP5 (specificity); type: cell-based; conditions: 10 μM, stable CHO cell line, FIG. 2
T1 construct: expressed in transfected cells
T1 sequence (P55064 whole entry): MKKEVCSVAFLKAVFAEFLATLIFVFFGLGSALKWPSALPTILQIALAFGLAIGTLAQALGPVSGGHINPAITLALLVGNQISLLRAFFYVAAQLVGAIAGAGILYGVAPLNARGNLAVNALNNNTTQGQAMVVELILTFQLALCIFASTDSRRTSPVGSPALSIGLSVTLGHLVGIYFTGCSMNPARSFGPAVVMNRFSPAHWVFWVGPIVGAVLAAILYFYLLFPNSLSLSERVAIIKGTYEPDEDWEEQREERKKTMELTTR
Protocol: (§1) Structure activity relationships (SARs) are determined by assaying analogues of selected hits to guide chemistry for the preparation of new molecules to be tested for improved potency. For this iterative process we use a quantitative kinetic assay—the Aquaporin-Mediated Cell Volume Change Assa—in a 96-well multiplate reader. It detects changes in light scattering by a monolayer of CHO cells expressing the desired AQP as they shrink when exposed to hypertonic solution (300 mOsm→530 mOsm). FIG. 1 depicts the aquaporin-mediated cell volume change assay with AQP4 expressing cells (FIG. 1A) and AQP2 expressing cells (FIG. 1B). The cells expressing aquaporins shrink more rapidly than control cells, due to enhanced water flow, which shrinkage can be inhibited by a compound that inhibits the aquaporin.
(§2) The specificity of the compounds is tested against the most closely related of the 13 known aquaporins: AQP1, AQP2, AQP5 and both splice variants of AQP4 (A and B). A stable CHO cell line is created for each of the above aquaporins and the inhibition of water permeability using the Aquaporin-Mediated Cell Volume Change Assay with 10 μM Compound 3 is tested.

[5] = target: T2, AQP1 (Homo sapiens, UniProt P29972); test: Aquaporin-Mediated Cell Volume Change Assay, CHO cells expressing AQP1 (specificity); type: cell-based; conditions: 10 μM, stable CHO cell line, FIG. 2
T2 construct: expressed in transfected cells
T2 sequence (P29972 1-269): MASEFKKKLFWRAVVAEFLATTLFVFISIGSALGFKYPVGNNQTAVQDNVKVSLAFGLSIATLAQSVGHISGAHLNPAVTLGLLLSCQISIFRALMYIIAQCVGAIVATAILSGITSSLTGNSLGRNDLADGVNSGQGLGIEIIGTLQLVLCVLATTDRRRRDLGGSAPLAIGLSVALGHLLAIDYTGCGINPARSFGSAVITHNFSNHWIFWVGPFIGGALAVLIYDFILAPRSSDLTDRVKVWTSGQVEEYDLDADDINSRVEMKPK
Protocol: as §1, §2

[6] = target: T3, AQP2 (Homo sapiens, UniProt P41181); test: Aquaporin-Mediated Cell Volume Change Assay, CHO cells expressing AQP2; type: cell-based; conditions: 10 μM, stable CHO cell line, FIG. 2
T3 construct: expressed in transfected cells
T3 sequence (P41181 1-271): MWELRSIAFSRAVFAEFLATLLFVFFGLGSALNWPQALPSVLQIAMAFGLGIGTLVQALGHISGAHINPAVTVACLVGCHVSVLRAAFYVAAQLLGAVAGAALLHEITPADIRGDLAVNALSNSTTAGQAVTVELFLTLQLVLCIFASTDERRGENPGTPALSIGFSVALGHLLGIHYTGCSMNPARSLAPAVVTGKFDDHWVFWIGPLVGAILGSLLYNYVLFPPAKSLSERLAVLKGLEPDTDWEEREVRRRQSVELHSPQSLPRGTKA
Protocol: as §1
(§3) In FIG. 1, aquaporin-expressing cells are shown in the presence of DMSO (triangles) or in the presence of the test compound (here, Compound 3) at 10 μM (squares), along with CHO-CD81 expressing control cells in the presence of DMSO (diamonds). Each curve represents an average of 16 wells in the 96-well plate.
(§4) In FIG. 1A, when the AQP4b cells treated with DMSO are exposed to hypertonic shock, the cells show rapid shrinking, giving a rise in light scattering (increasing relative change in absorbance, Abs/Abs0) followed by a decay as cells detach from the plate. […]

[7] = test system: AQP4; test: Aquaporin-Mediated Cell Volume Change Assay, CHO cells expressing AQP4 (AQP4b); type: cell-based; conditions: 10 μM, stable CHO cell line, FIG. 2
Protocol: as §1, §3, §4

[8] = target: purified AQP4b (Homo sapiens, UniProt P55087); test: Hummel-Dryer style binding assay with [3H]-Compound 4 and purified AQP4b; conditions: for Kd: detergent buffer, 1 μM [3H]-Compound 4, read-out: relative affinity
purified AQP4b, sequence (P55087 23-323): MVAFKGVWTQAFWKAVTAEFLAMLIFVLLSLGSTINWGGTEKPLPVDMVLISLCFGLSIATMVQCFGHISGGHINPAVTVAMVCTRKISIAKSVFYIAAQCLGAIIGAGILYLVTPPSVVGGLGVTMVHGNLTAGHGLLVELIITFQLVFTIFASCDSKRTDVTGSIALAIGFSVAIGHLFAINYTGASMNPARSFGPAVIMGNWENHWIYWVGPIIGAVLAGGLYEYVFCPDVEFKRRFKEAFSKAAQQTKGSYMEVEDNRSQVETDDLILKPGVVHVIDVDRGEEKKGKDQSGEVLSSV
Protocol: To support the mechanism of action by which phenylbenzamides directly block AQP4, we perform in vitro binding studies using purified AQP4b and Compound 4 radiolabeled with ^3H. Using a Hummel-Dryer style assay, a gel filtration column is equilibratrated with buffer containing detergent, to maintain solubility of AQP4b, and 1 μM [^3H]-Compound 4. AQP4b is diluted to 250 μM in this column buffer and incubated at RT for 30 min. The sample is then applied to the column, fractions collected and the presence of [^3H]-Compound 4 detected by liquid scintillation counting. […] The rise in [^3H]-Compound 4 from a baseline value of 1 μM represents binding to each of these proteins.

[9] = test system: mouse middle cerebral artery occlusion (MCAo) model; test: Mouse MCAo stroke model, cerebral edema by MRI and neurological outcome
Protocol: To mimic this injury in mice, an intraluminal monofilament model of middle cerebral artery occlusion (MCAo) is used. Occlusion is achieved by inserting a surgical filament into the external carotid artery (ECA) and threading it forward into the internal carotid artery (ICA) until the tip blocks the origin of the MCA. […] This technique is used to study a temporary occlusion in which the MCA is blocked for one hour. The filament is then removed allowing reperfusion to occur for 24 hours before the animal's brain was imaged using T2-weighted scans in a 9.4 T Bruker MRI scanner at the Case Center for Imaging Research (FIG. 10).
Cerebral Edema—Mice are given saline or treated with Compound 5 by multi-dosing at 5 mg/kg i.p. every three hours (n=8 per treatment). […] Ipsilateral and contralateral hemispheric volume is measured from the T2-weighted MR images of mice 24 hours post-icus. Relative change in hemispheric volume is calculated as a percent of the difference between ipsilateral brain volume (Vi) and contralateral brain volume (Vc) relative to the contralateral brain volume (Percent Change in Hemispheric Brain Volume=((Vi−Vc)/Vc)×100%.
Neurological Outcome—In the same experiment as above, animals are scored for neurological outcome on a simple 5 point scale described in Manley, G. T. et al., Aquaporin-4 Deletion in Mice Reduces Brain Edema After Acute Water Intoxication and Ischemic Stroke, Nature Medicine, 6, 159-163 (2000).

[10] = test system: mouse middle cerebral artery occlusion (MCAo) model; test: Mouse MCAo stroke model, survival; type: in vivo; conditions: 2 mg/kg i.p. loading dose plus 1 mg/ml at 8 μl/h pump, versus saline, P<0.05
Protocol: To mimic this injury in mice, an intraluminal monofilament model of middle cerebral artery occlusion (MCAo) is used. Occlusion is achieved by inserting a surgical filament into the external carotid artery (ECA) and threading it forward into the internal carotid artery (ICA) until the tip blocks the origin of the MCA. […] This technique is used to study a temporary occlusion in which the MCA is blocked for one hour.
Survival—Mice are treated with Compound 5 using a 2 mg/kg i.p. loading dose and 1 mg/ml at 8 μl/h maintenance dose (delivered by an i.p. osmotic pump) of Compound 5, or given saline (controls; n=17) using an identical approach.

[11] = test system: AQP; test: AQP inhibition cell-based assay (Table 1)
Protocol: as §1

O=C(Nc1cc(C(F)(F)F)cc(C(F)(F)F)c1)c1cc(Cl)ccc1OP(=O)(O)O
level of the salt in plasma samples of mice injected IP (in words) (IP injection): undetectable
bioavailability and conversion to Compound 1 (in words) (IP injection, Compound 1 detected in plasma): good bioavailability and near-complete conversion
bioconversion to Compound 1 (in words) ([1]; added to mouse plasma in vitro): rapid bioconversion
time sufficient to render the salt undetectable ([1]; mouse plasma in vitro, 20° C.): Less than 5 minutes

O=C(Nc1cc(C(F)(F)F)cc(C(F)(F)F)c1)c1cc(Cl)ccc1O [Compound 1, N-(3,5-Bis-trifluoromethyl-phenyl)-5-chloro-2-hydroxy-benzamide]
extent of CE during the period of observation (in words) ([2]; 0.76 mg/kg): reduced
expected efficacious plasma concentration (taken from the mouse water toxicity model): 20 ng/mL
solubility [3]: 3.8 µg/mL (≈ 9.9 µM)

O=C(Nc1cc(Cl)cc(Cl)c1)c1cc(Cl)ccc1O [Compound 3]
inhibition of water permeability (in words) [4]: poorly inhibits
inhibition of water permeability (in words) [5]: poorly inhibits
inhibition of water permeability (in words) [6]: inhibits
inhibition of water permeability (in words) [7]: inhibits

O=C(Nc1cc(C(F)(F)F)cc(C(F)(F)F)c1)c1cc(C(F)(F)F)ccc1O [Compound 4, N-[3,5-bis(trifluoromethyl)phenyl]-2-hydroxy-5-(trifluoromethyl)benzamide]
Kd ([8]; monomeric AQP4b): < 1 µM
binding to solubilized AQP4b (in words) ([8]; solubilized AQP4b): relatively weak binding
Kd ([8]; tetrameric AQP4b): ~100 µM

O=C(Nc1cc(C(F)(F)F)cc(C(F)(F)F)c1)c1cc(Cl)ccc1OP(=O)(O)O [Compound 5]
neurological progression (in words) ([9]; 5 mg/kg i.p. every three hours): did not progress into a state of severe paralysis or death
relative change in ipsilateral brain volume ([9]; 5 mg/kg i.p. every three hours, 24 hours after MCAo, ±SEM, control 13.4%±1.9%): 4.2±1.7%
reduction in brain swelling after MCAo ([9]; 5 mg/kg i.p. every three hours, versus control): 3.2 fold
average neurological score ([9]; 5 point scale, P=0.025, control 2.77±0.66): 0.88±0.31
improvement in overall survival at 24 h [10]: 29.4%
solubility [3]: 1000 µg/mL (≈ 2160 µM)

O=C(Nc1ccccc1)c1ccccc1 [Phenylbenzamide, reference compound]
reduction in the rate of CE (in words) ([2]; 0.39 mg/kg): fails to show reduction
AQP Inhibition Cell-Based Assay [11]: 4.5%
